PMC12040169 (PLOS Biology, 2025)
“And” between values parts separate entries of the source, which are not always exact repeats. Equal values may be shown once.

Assays:
HeLa = details: bulk resorufin, single well, 28.5 h, 10 µM, Bulk resorufin fluorescence
[1] = system: T1, C. trachomatis L2/434/Bu expressing GFP (CTL2-GFP); test: microbe, parasite or virus in culture; design: C. trachomatis total inclusion area by high-content imaging, normalised to DMSO; details: Chlamydia trachomatis, HeLa, 28.5 h; total inclusion area; read-out: % of control remaining
T1 construct: L2/434/Bu GFP intracellular growth in HeLa cells
Method in brief: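 First, bulk GFP and resorufin signals were measured in compound-treated infected cultures. Cells were next fixed and stained with Hoechst. Finally, high-content imaging quantified chlamydial inclusions (area, number) and host nuclei, and MICs were calculated.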

[2] = system: T2, CTL2-GFP (C. trachomatis L2/434/Bu, GFP-expressing); test: microbe, parasite or virus in culture; design: Intracellular C. trachomatis growth in HeLa cells, bulk GFP fluorescence relative to DMSO; details: Chlamydia trachomatis, HeLa, 28.5 h; bulk GFP, mean of 2; read-out: % of control remaining
T2 construct: L2/434/Bu, GFP-expressing
Experimental: MICs were calculated as described above.

in vitro [3] = test: in vitro; design: Viability of infected HeLa host cells, resazurin conversion, bulk resorufin fluorescence relative to DMSO; details: human, hela cells; bulk resorufin, mean of 2
in vitro [4] = details: human, hela cells, % viability

Compound | % viability (HeLa) | activity at 1 µM [1] | activity at 5 µM [1] | activity at 10 µM [1] | activity at 1 µM [2] | activity at 5 µM [2] | activity at 10 µM [2] | viability at 28.5 h, 1 µM (in vitro [3]) | viability at 28.5 h, 5 µM (in vitro [3]) | viability at 28.5 h, 10 µM (in vitro [3]) | viability at 28.5 h, 10 µM (in vitro [4])
CC(C)[C@@H](N)Cn1nc(-c2ccc(F)c(F)c2)ccc1=O [CBK282429] | 83% and 112% | – | – | – | – | – | – | – | – | – | –
O=C(c1cccc(C(F)(F)F)c1)N1CCCC2(CCN(C(=O)c3ccoc3)C2)C1 (stereo not shown) [CBK131616] | 116% and 88% | – | – | – | – | – | – | – | – | – | –
O=C1NCCN1CCNS(=O)(=O)c1csc2ccccc12 [CBK062602] | 117% and 90% | – | – | – | – | – | – | – | – | – | –
COc1ccc(Nc2nccc(-c3cccnc3)n2)cc1 [CBK288073] | 70.2% and 104% | – | – | – | – | – | – | – | – | – | –
NCCCNc1ncc(C(=O)NCc2ccccc2)c(NCC2CCCCC2)n1 [CBK215386] | – | 95.7% | 73.1% | 19.8% | 97.9% | 89.2% | 32.4% | 113% | 116% | 96.6% | 103%
COc1c(Br)cc2c(cc(C)n2-c2ccccc2)c1OCC(O)CNC(C)C (stereo not shown) [CBK263516] | – | 1.64% | 0.762% | 0.887% | 6.43% | 9.2% | 7.41% | 99.6% | 83% | 91.3% | 93.8%
Cc1csc(SC(C)C(=O)N2CCc3ccccc32)n1 (stereo not shown) [CBK305909] | – | 112% | 49.8% | 42.5% | 143% | 149% | 132% | 94.1% | 91.9% | 89.5% | 98.8%
CN(C)c1ncc(-c2cccc(Cl)c2)c(C2CCCN2C(=O)CC2CCCC2)n1 (stereo not shown) [CBK286253] | – | 105% | 82.7% | 44.1% | 135% | 91% | 43.9% | 97.3% | 106% | 110% | 120%
CC(=O)NC[C@H]1CN(c2ccc(-c3nnc([C@@H](C)N)s3)c(F)c2)C(=O)O1 [CBK017966] | – | 84.6% | 5.78% | 2.78% | 90.2% | 10% | 3.77% | 92.5% | 87.1% | 89.3% | 93.2%
Fc1cccc(F)c1OCCOc1nc(N2CCNCC2)ccc1C(F)(F)F [CBK003977A] | – | 53.4% | 9.38% | 1.96% | 86.2% | 37.8% | 27.8% | 92.3% | 90.5% | 89.4% | 87%
O=c1c2cnc3ccnn3c2ccn1C1CCCC1 [CBK288074] | – | 65.5% | 60.4% | 4.02% | 109% | 72.3% | 2.35% | 103% | 106% | 109% | 107%
N=c1c2c(-c3ccccc3)c(-c3ccccc3)n(Cc3ccccc3)c2ncn1CCN1CCOCC1 [CBK268537] | – | 119% | 66.8% | 34.6% | 123% | 83% | 70.7% | 94.8% | 97.8% | 93.4% | 92%
Cc1cc(C(=O)Nc2cccc(S(=O)(=O)N3CCOCC3)c2)sc1-c1ccccc1 [CBK268185] | – | 107% | 82.1% | 51.4% | 102% | 88.9% | 77.7% | 106% | 96.9% | 98.5% | 102%
